Here are results for 5 molecules from US4448788A, “11-Deoxoglycyrrhetinic acid hydrogen maleate, process for its production, and its use as a medicine” (priority 1981, dated 1984).

The test system of data set [1] is Acetic acid-induced ulcer. The experiment in a line: Acetic acid-induced ulcer. It counts as in vivo, male SD-strain rats. To be noted: for Percent inhibition / Ulcer index (mean ± standard deviation): once a day for 10 days; for significance of inhibition: rat, in vivo. Here is the method: In the following test examples, male SD-strain rats (body weight 200 to 250 g) were used as experimental animals, and a sodium salt of the compound of formula (I) dissolved in distilled water was used as the compound of this invention. Acetic acid-induced ulcer: Rats, 5 or 10 per group, were used. After they were anesthetized with pentobarbital sodium, the abdomen was incised, and 0.05 ml of 10% acetic acid was injected into the mucous membrane from the serous layer at the boundary portion in the anterior wall between the body of the stomach and the pylorus part. The abdomen was then sutured. Each of the test drugs shown in Table 2 was intraperitoneally or orally administered once a day for 10 consecutive days beginning with the second day after the above operation. On the 15th day after the operation, the stomach was excised and 12 ml of 1% formalin was injected into it. Then, the stomach was dipped in 1% formalin for 10 minutes, and cut open along the greater curvature. The area of an ulcer generated was measured, and the ulcer index was calculated on the basis of the following standard. |0 0 |1-8 1 | 9-24 2 |25-63 3 | 64-120 4 |121-168 5 |>168 6 The tissue respiration activator used was a calf's blood extract preparation administered at a rate of 0.5 ml per 100 g of body weight (this applies to all tissue respiration activators appearing hereinafter).

Data set [2] has as its system Indomethacin-induced ulcer. In words: Indomethacin-induced ulcer. It counts as in vivo, male SD-strain rats. As to the method:
(§1) In the following test examples, male SD-strain rats (body weight 200 to 250 g) were used as experimental animals, and a sodium salt of the compound of formula (I) dissolved in distilled water was used as the compound of this invention.
(§2) The tissue respiration activator used was a calf's blood extract preparation administered at a rate of 0.5 ml per 100 g of body weight (this applies to all tissue respiration activators appearing hereinafter).
Indomethacin-induced ulcer:
Rats, 5 per group, were used. They were caused to fast for 24 hours while giving them only water. Then, indomethacin was subcutaneously injected to the rats in a dose of 30 mg/kg. Eight hours later, the rats were killed, and the stomach was excised and treated in the same way as in Test Example 3. The length of the erosion generated was measured. Each of the test drugs shown in Table 4 was administered to the rats intraperitoneally or orally 10 minutes before the administration of iodomethacin.

The test system of data set [3] is Delayed-type cellular immunity. In words: Delayed-type cellular immunity activating action (sheep red blood cells, foot pad thickness). It is filed as in vivo, mice. The following applies: day 8. As to the method: Mice, 10 per group, were used. Sheep red blood cells (1.0×10^7) were subcutaneously inoculated in the right foot pad of each mouse. The day of inoculation was taken as day 0, and on the same day, the sodium salt of the compound of formula (I) was administered to the mice intraperitoneally or orally. On day 7, sheep red blood cells (1.0×10^7) were subcutaneously inoculated in the left foot pad of each mouse, and on day 8, the thickness of each foot pad was measured.

Data set [4] concerns Shay's ulcer (ulcer induced by ligation of the pylorus). The experiment in a line: Pylorus ligating method (Shay's ulcer). It counts as in vivo, male SD-strain rats. The arrangement: Ulcer index (mean ± standard deviation): scale not given here. The following applies: for minimal effective dose: Rattus norvegicus, read-out: positively effective dose. Here is the method:
as §1
Pylorus ligating method (Shay's ulcer):
Rats, 10 per group, were used, and allowed to fast for 48 hours in separate cages while giving them only water. Pentobarbital sodium was injected intraperitoneally to the rats in a dose of 5 mg per rat. Under anesthesia, the abdomen of each rat was incised, and the portion leading from the pylorus to the duodenum was ligated. Then, the abdomen was sutered. The rats were then left for 19 hours without giving them food and water. Then, under ether anesthesia, the rats were killed by removing the spinal cord. The stomach was excised, and the amount of the gastric juice was measured. The stomach was then cut open along its greater curvature, and placed on a cork plate. The area of an ulcer generated at the anterior stomach was measured by means of an Olympus stereoscope (magnification 10×), and the ulcer index was calculated on the basis of the following criteria.
The test compound of the invention was injected immediately after the ligation, or orally administered 30 minutes before the ligation. To a control group, physiological saline was given at a rate of 1 ml per 100 g of body weight.

A further data set relates to Stress ulcer. In words: Stress ulcer (water immersion). It counts as in vivo, male SD-strain rats. Here is the method: as §1, §2
Rats, 5 per group, were used. They were put in wire gauze stress cages (made by Natsume Seisakusho) in an upstanding position. The cages were put in a water bath kept constantly at 23° C., and the rats were immersed to a level of the sternal projection. Each of the drugs shown in Table 3 was administered to the rats intraperitoneally or orally 15 minutes before water immersion. Seven hours after the administration, the rats were knocked out to death. The stomach was excised, and the length of a stress ulcer (erosion) was measured.

Data set [5] can be described thus: Toxicity (LD50, method of Reed and Muench). The following applies: rat, in vivo, rats observed for 7 days. As to the method:
The LD50 value was calculated by the method of Reed and Muench.

The test system of data set [6] is aldosterone (DCA)-like activity. The following applies: cited from earlier work.
The mark [7] stands for this setting: oral, 300 mg/kg, P < 0.05 (cetraxate), P < 0.001 (compound of the invention).
[8] abbreviates: oral, 300 mg/kg, P < 0.01 (cetraxate), P < 0.001 (compound of the invention).
The mark [9] stands for this setting: oral, 50 mg/kg, P < 0.05 (cetraxate), P < 0.0001 (compound of the invention).

Counter-ions that a name gives are not always drawn. Like-named read-outs stand apart in the source and are kept apart here.

In the case of `CC1(C)[C@@H](OC(=O)CCC(=O)O)CC[C@]2(C)[C@H]3C(=O)C=C4[C@@H]5C[C@@](C)(C(=O)O)CC[C@]5(C)CC[C@@]4(C)[C@]3(C)CC[C@@H]12` [Carbenoxolone sodium, glycyrrhetinic acid hydrogen succinate sodium salt, reference compound], the Percent inhibition in data set [1] (oral, 300 mg/kg) was 12.6%.

The term LD50 denotes the dose expected to kill half of the subjects tested. In the case of `CC1(C)[C@@H](OC(=O)/C=C\C(=O)O)CC[C@]2(C)[C@H]3CC=C4[C@@H]5C[C@@](C)(C(=O)O)CC[C@]5(C)CC[C@@]4(C)[C@]3(C)CC[C@@H]12` [Compound of the invention, sodium salt of 11-deoxoglycyrrhetinic acid hydrogen maleate], the “Length of the erosion (mean ± standard deviation)” value in data set [2] (intraperitoneal, 20 mg/kg) came out at 17.69 ± 8.08 mm; in data set [2] (oral, 100 mg/kg), 9.37 ± 3.22 mm; in data set [2] (oral, 300 mg/kg) it was 7.22 ± 3.06 mm; in data set [2] (oral, 500 mg/kg), 5.63 ± 3.92 mm; with Stress ulcer (intraperitoneal, 20 mg/kg), 19.25 ± 0.95 mm; with Stress ulcer (oral, 100 mg/kg, P < 0.001), 9.6 ± 4.80 mm. Further, the “Length of the erosion (mean ± standard deviation)” value with Stress ulcer (setting [8]) stood at 0.0 ± 0.00 mm; in the data set on Stress ulcer (oral, 500 mg/kg, P < 0.001), 0.0 ± 0.00 mm. Also, the Percent inhibition in data set [2] (intraperitoneal, 20 mg/kg) was found to be 74.7%; in data set [2] (oral, 100 mg/kg, P < 0.001), 83.3%; in data set [2] (setting [7]), 87.1%; in data set [2] (oral, 500 mg/kg, P < 0.001) it was 90.0%; in data set [4] (intraperitoneal, 5 mg/kg) it was 17.1%; in data set [4] (intraperitoneal, 10 mg/kg), 65.9%. Besides, the Percent inhibition is reported as 70.7% in data set [4] (intraperitoneal, 20 mg/kg); 92.7% in data set [4] (intraperitoneal, 50 mg/kg); 90.4% in data set [4] (intravenous, 40 mg/kg); 36.0% in data set [4] (oral, 100 mg/kg); 80.0% in data set [4] (oral, 300 mg/kg); 84.0% in data set [4] (oral, 500 mg/kg). Moreover, the Percent inhibition is 84.6% in data set [4] (subcutaneous, 70 mg/kg); 70.3% in the data set on Stress ulcer (intraperitoneal, 20 mg/kg); 87.5% with Stress ulcer (oral, 100 mg/kg); 100.0% in the data set with Stress ulcer (oral, 300 mg/kg); 100.0% with Stress ulcer (oral, 500 mg/kg); 54.8% in data set [1] (intraperitoneal, 2 mg/kg). Besides, the Percent inhibition was 40.7% in data set [1] (oral, 10 mg/kg, P < 0.001); 48.1% in data set [1] (oral, 30 mg/kg, P < 0.001); 63.0% in data set [1] (setting [9]). Besides, the “Ratio to the control group” value worked out at 1.18 in data set [3] (5 mm/kg (so in the source), intraperitoneal); 1.49 in data set [3] (15 mm/kg (so in the source), intraperitoneal); 1.40 in data set [3] (100 mm/kg (so in the source), oral). The minimal effective dose in data set [4] (ip, intraperitoneal) was about 10 mg/kg; in data set [4] (oral) it was about 300 mg/kg. Also, the “Ulcer index (mean ± standard deviation)” value in data set [4] (intraperitoneal, 5 mg/kg) is 3.4 ± 0.84; in data set [4] (intraperitoneal, 10 mg/kg, P < 0.01), 1.4 ± 0.51; in data set [4] (intraperitoneal, 20 mg/kg, P < 0.01), 1.2 ± 0.20; in data set [4] (intraperitoneal, 50 mg/kg, P < 0.001), 0.3 ± 0.21; in data set [4] (intravenous, 40 mg/kg, P < 0.001) it was 0.4 ± 0.19; in data set [4] (oral, 100 mg/kg), 3.2 ± 0.97. Besides, the “Ulcer index (mean ± standard deviation)” value in data set [4] (oral, 300 mg/kg, P < 0.01) was 1.0 ± 1.01; in data set [4] (oral, 500 mg/kg, P < 0.001) it was 0.8 ± 0.49; in data set [4] (subcutaneous, 70 mg/kg, P < 0.001), 0.8 ± 0.90; in data set [1] (intraperitoneal, 2 mg/kg, P < 0.001), 1.40 ± 0.247; in data set [1] (oral, 10 mg/kg) it was 1.60 ± 0.699; in data set [1] (oral, 30 mg/kg), 1.40 ± 0.699. For the same molecule, in data set [1] (oral, 50 mg/kg), the “Ulcer index (mean ± standard deviation)” value came to 1.00 ± 0.817. In addition, in data set [4] (rat, in vivo), the “effect against ulcer induced by ligation of the pylorus” value is on record as “effective against ulcer induced by ligation of the pylorus”. In addition, the significance of inhibition result in data set [1] was “significant inhibitions at P<0.001”. The “rank of percent inhibition” value in data set [1] (versus cetraxate hydrochloride and tissue respiration activator) is reported as “highest”. In addition, the median lethal dose (LD50) at 168 h was 67.8 mg/kg in data set [5] (ip, intraperitoneal); 98.3 mg/kg in data set [5] (sc, subcutaneous); 54.2 mg/kg in data set [5] (intravenous); over 6000 mg/kg in data set [5] (oral).

As for `CC1(C)[C@@H](O)CC[C@]2(C)[C@H]3C(=O)C=C4[C@@H]5C[C@@](C)(C(=O)O)CC[C@]5(C)CC[C@@]4(C)[C@]3(C)CC[C@@H]12` [glycyrrhetinic acid], the “aldosterone (DCA)-like activity, sodium retention and potassium excretion” value in data set [6] was “have an aldosterone (DCA)-like activity and promote sodium retention and potassium excretion”.

Take `NC[C@H]1CC[C@H](C(=O)Oc2ccc(CCC(=O)O)cc2)CC1` [Cetraxate hydrochloride, cetraxate hydrochloride, reference compound]: the “Length of the erosion (mean ± standard deviation)” value is 38.94 ± 8.22 mm in data set [2] (intraperitoneal, 200 mg/kg); 31.58 ± 7.59 mm in data set [2] (oral, 300 mg/kg); 56.08 ± 12.89 mm with Stress ulcer (intraperitoneal, 200 mg/kg); 48.6 ± 3.90 mm with Stress ulcer (setting [8]). Moreover, the Percent inhibition in data set [2] (intraperitoneal, 200 mg/kg) was 44.3%; in data set [2] (setting [7]), 43.7%; in the data set on Stress ulcer (intraperitoneal, 200 mg/kg), 13.5%; in the data set with Stress ulcer (oral, 300 mg/kg), 36.6%; in data set [1] (intraperitoneal, 20 mg/kg), 49.5%; in data set [1] (setting [9]), 29.6%. Besides, the “Ulcer index (mean ± standard deviation)” value was 1.60 ± 0.245 in data set [1] (intraperitoneal, 20 mg/kg) and 1.90 ± 0.568 in data set [1] (oral, 50 mg/kg). Also, in data set [1], the significance of inhibition entry was “significant inhibitions at P<0.001”.

Regarding `CC1(C)[C@@H](O)CC[C@]2(C)[C@H]3CC=C4[C@@H]5C[C@@](C)(C(=O)O)CC[C@]5(C)CC[C@@]4(C)[C@]3(C)CC[C@@H]12` [11-deoxoglycyrrhetinic acid], the DCA activity entry in data set [6] (Baran et al., J. Med. Chem. 1974) is “does not substantially show the DCA activity”.
